Measured values as given in US20210113540A1, “TREATMENT AGENT AND PHARMACEUTICAL COMPOSITION FOR GLIOMA” (NATIONAL UNIVERSITY CORPORATION HOKKAIDO UNIVERSITY, priority 2018, published 2021).
Where two headings read alike, the source gives them in different places. One block for each compound: values may come before it.

What was measured:
[1] = system: Glioma-initiating cell E6R; assay: Cell growth test (MTT) on GICR strain E6R; format: cell-based; conditions: Homo sapiens, 72 h
Protocol: GICR strain: Cell growth test was performed using E6R (Stem Cells. 2016 August; 34(8):2016-25.).
(§1) Cell culture solutions were obtained by mixing a medium prepared by adding various compounds, bFGF (Peprotech, 100-18B) and EGF (Peprotech, 100-15) to DMEM/Ham's F-12 medium (SIGMA, D8062) and a medium prepared by adding FCS (Hyclone, SH30910.03) to DMEM medium (Nacalai tesque, 08458-45) to a concentration of 10% for use.
(§2) Each compound adjusted to a predetermined concentration was dispensed into a 96-well plate (Falcon, 353072) at 80 μL/well, and E6 cells and E6R cells were seeded on the 96-well plate at 1000 cells/80 μL/well. After 3 days, 10 μL of an MTT reagent (DOJINDO, 341-01823) was added, the cells were incubated at 37° C. for 3 hours, the culture solution was removed, and 100 μL of DMSO was added. The absorbance at 570 nm was measured using Bio-Rad iMark (Bio-Rad, 168-1130JA). The growth inhibition rate at each test compound concentration was calculated by the following formula using the absorbance as an index of the viable cell count.
(§3) The growth inhibition rate at each compound concentration was determined, and the 50% growth inhibition concentration GI50 (μmol/L)] was calculated using XLfit. Growth inhibition rate (%)=(Amount of luminescence from wells supplemented with test compound)/(Amount of luminescence from wells supplemented with DMSO)×100
(§4) GIC and GICR strain: Cell growth test was performed using E6, E6R, E16, and E16R (Stem Cells. 2016 August; 34(8): 2016-25.).

[2] = system: Glioma-initiating cell E6; assay: Cell proliferation test (MTT) on GIC strain E6; format: cell-based; conditions: Homo sapiens, 72 h, MTT after 3 days
Protocol: as §4, §1, §2, §3

[3] = system: Glioma-initiating cell E16R; assay: Cell proliferation test (MTT) on GICR strain E16R; format: cell-based; conditions: Homo sapiens, 72 h, MTT after 3 days
Protocol: as §4, §1, §2, §3

[4] = system: Glioma-initiating cell E16; assay: Cell proliferation test (MTT) on GIC strain E16; format: cell-based; conditions: Homo sapiens, 72 h, MTT after 3 days
Protocol: as §4, §1, §2, §3

recombinant human DHODH = biological target: T1, recombinant human DHODH (Homo sapiens, UniProt Q02127); assay: DHODH enzyme assay (DCIP quenching); format: biochemical; conditions: pH 8.0, DCIP absorbance 600 nm, 50 minutes; read-out: DHODH enzyme inhibition IC50
T1 construct: DHODH, 31-395aa, Human, His tag, E. coli, ATGP1615; His tag; purchased ATGen ATGP1615; host or cells: E. coli
T1 sequence (Q02127 31-395): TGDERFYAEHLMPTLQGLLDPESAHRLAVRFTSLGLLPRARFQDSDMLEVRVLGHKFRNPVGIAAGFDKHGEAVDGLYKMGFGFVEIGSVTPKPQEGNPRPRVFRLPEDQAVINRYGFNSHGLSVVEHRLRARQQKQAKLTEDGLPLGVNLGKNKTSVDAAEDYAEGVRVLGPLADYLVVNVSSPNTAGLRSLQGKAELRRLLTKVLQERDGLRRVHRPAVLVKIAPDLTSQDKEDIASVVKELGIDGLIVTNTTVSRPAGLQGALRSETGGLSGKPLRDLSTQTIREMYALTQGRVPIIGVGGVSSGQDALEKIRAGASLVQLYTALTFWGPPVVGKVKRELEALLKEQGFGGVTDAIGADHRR
Protocol: For DHODH enzyme assay, “Benjamin Bader, Wolfgang Knecht, Markus Fries, and Monika Löffler. Expression, Purification, and Characterization of Histidine-Tagged Rat and Human Flavoenzyme Dihydroorotate Dehydrogenase. Protein Expression and Purification, 1998, 13, 414-422” was referred to.
DHODH activity was evaluated using an enzyme assay system that couples with an assay in a blue-coloring dye 2,6-dichlorophenol indophenol (DCIP, MP BIOMEDICALS, MP150118) quenching assay. Purified recombinant human DHODH (DHODH, 31-395aa, Human, His tag, E. coli, ATGP1615) was purchased from ATGen. […] Enzyme activity was assessed by measuring the decrease in DCIP absorbance (600 nm) for 50 minutes using an Envision plate-reading spectrophotometer (PerkinElmer Co., Ltd.). […]
Enzyme reaction inhibition rate (%)=(Amount of luminescence from wells supplemented with test compound)/(Amount of luminescence from wells supplemented with DMSO)×100

SOX2 in GICs (E6) = assay: SOX2 immunostaining, SOX2/DAPI positive rate in GICs (E6); format: cell-based, human; conditions: 20 μmol/L OSMI-1, cultured 2 days; control 71±2%
Protocol: (§5) The extranuclear elimination of compound 8-dependent SOX2 is dependent on the extranuclear transport factor, Exportin (also known as CRM1). The cells were cultured for one day in the presence of Compound 8 (10 μM) and a CRM1-specific inhibitor leptomycin B (LMB, 150 nM), and GICs were immunostained with the SOX2 antibody. As a result, the SOX2/DAPI positive rate in GICs (E6) was as follows: Control: 95±2%, supplemented with Compound 8: 7±3%, supplemented with Compound 8+LMB: 87±9%; the SOX2/DAPI positive rate in GICs (E16) was as follows: Control: 72±11%, supplemented with compound 8: 0.5±1%, supplemented with Compound 8+LMB: 81±10%. The addition of LMB suppressed Compound 8-dependent extranuclear elimination of SOX2.
(§6) When UDP-GlcNAc was added after the chemical was added to GIC, reduced SOX2 expression in GICs and the cytotoxic activity of Compound 8 on GICs were neutralized (FIGS. 3 and 4). SOX2 K75A in which lysine 75 involved in the binding of CRM1 and SOX2 was substituted with alanine and SOX2 S248A in which the 0-GlcNAcylation target serine 248 was substituted with alanine were prepared, thereby establishing GICs that constitutively express these SOX2 mutants and wild-type SOX2 (SOX2 wt). After treatment with Compound 8, the localization of SOX2 was examined by immunostaining using an anti-FLAG antibody, and the viability of GICs expressing these mutants was examined by MTT assay (FIG. 5). In the presence of Compound 8, SOX2 K75A was present in the nucleus and partially neutralized the cytotoxic activity of Compound 8. SOX2 S248A was not retained in the nucleus by treatment with Compound 8, and no inhibitory effect on cytotoxic activity was observed. […] The SOX2/DAPI positive rate was as follows: GIC (E6): Control: 0%, SOX2 wt: 36±5%, SOX2 K75A: 63±5%, SOX2 S248A: 18±2%; GIC (E16): Control: 0%, SOX2 wt: 22±4%, SOX2 K75A: 58±6%, SOX2 S248A: 15±3%. Error bar: ±SD. Statistical processing is t-test. *P<0.05, **P<0.01, ***P<0.001. GIC was cultured for 2 days with Compound 8 (10 μmol/L) alone or together with UDP-GlcNAc (1 mmol/L), and immunostaining was performed for SOX2 and NESTIN. As a result, the addition of UDP-GlcNAc suppressed Compound 8-dependent extranuclear elimination of SOX2.
(§7) OSMI-1, which is an O-GlcNAc transferase (OGT)-specific inhibitor, suppresses GIC growth and SOX2 expression. (A) GICs were cultured for 3 days in the presence of various concentrations of OSMI-1, and cell growth was examined using MTT assay (FIG. 6). (B) The results of immunostaining for SOX2 and NESTIN using GICs cultured for 2 days in the presence of 20 μmol/L OSMI-1 and calculating the SOX2 positive rate (SOX2/DAPI) are shown below.

GICs = assay: GIC growth in the presence of OSMI-1 (MTT assay); format: cell-based, human; conditions: cultured 3 days, various concentrations of OSMI-1, FIG. 6
Protocol: as §7

SOX2 in GICs (E16) = assay: SOX2 immunostaining, SOX2/DAPI positive rate in GICs (E16); format: cell-based, human; conditions: 20 μmol/L OSMI-1, cultured 2 days; control 65±5%
Protocol: as §5, §6, §7

[5] = MTT after 3 days, read-out: ER6 GI50
[6] = class of ER6 GI50, MTT after 3 days, read-out: Evaluation

GI50 [1, 5]: 0.36 nmol/L
GI50 [1, 6]: < 1000 nmol/L
SMILES: Cn1ccc2cc(Nc3ncc(C4CC4)cc3C(=O)O)cc(C3=CCCCC3)c21 [Compound 20]

GI50 ([2]; read-out: GI50 (nmol/L) of Glioma-initiating cell E6): 100 nmol/L
GI50 ([2]; read-out: GI50 class of Glioma-initiating cell E6): < 1000 nmol/L
GI50 ([3]; read-out: GI50 (nmol/L) of Glioma-initiating cell E16R): 1960 nmol/L
GI50 ([3]; read-out: GI50 class of Glioma-initiating cell E16R): 1000 to 10000 nmol/L
GI50 ([4]; read-out: GI50 (nmol/L) of Glioma-initiating cell E16): 11800 nmol/L
GI50 ([4]; read-out: GI50 class of Glioma-initiating cell E16): ≥ 10000 nmol/L
GI50 ([1]; MTT after 3 days, read-out: GI50 (nmol/L) of Glioma-initiating cell E6R): 655 nmol/L
GI50 ([1]; MTT after 3 days, read-out: GI50 class of Glioma-initiating cell E6R): < 1000 nmol/L
IC50 (recombinant human DHODH): 28.6 nM
SMILES: O=C(O)c1cc(C2CC2)cnc1Nc1ccc2c(ccn2Cc2cccc(F)c2)c1 [Compound 21, 5-cyclopropyl-2-((1-(3-fluorobenzyl)-1H-indole-5-yl)amino)nicotinic acid]

The remaining lines, values behind:

SMILES: Cn1ccc2cc(Nc3ncc(C4CC4)cc3C(=O)O)cc(-c3ccc(Cl)cc3)c21 [Compound 18, 2-((7-(4-chlorophenyl)-1-methyl-1H-indole-5-yl)amino)-5-cyclopropylnicotinic acid]
GI50 [1, 5]: 0.62 nmol/L
GI50 [1, 6]: < 1000 nmol/L

SMILES: O=C(O)c1cc(C2CC2)ccc1Nc1cccc2c1ccc(=O)n2-c1ccccc1 [Compound 19, 5-cyclopropyl-2-((2-oxo-1-phenyl-1,2-dihydroquinoline-5-yl)amino)benzoic acid]
GI50 [1, 5]: 5.8 nmol/L
GI50 [1, 6]: < 1000 nmol/L

SMILES: COc1ccccc1[C@@H](NS(=O)(=O)c1ccc2[nH]c(=O)ccc2c1)C(=O)N(Cc1ccco1)Cc1cccs1 [OSMI-1, reference compound]
SOX2 positive rate (SOX2/DAPI), GIC (E6) (SOX2 in GICs (E6)): 32±4%
GIC growth (GICs): suppresses
SOX2 positive rate (SOX2/DAPI), GIC (E16) (SOX2 in GICs (E16)): 30±5%
